Assays:
[1] = xn = mol fraction of the nth substance listed; settings: 101.3 kPa, Liquid, Vibrating tube method
[2] = molar heat capacity at constant pressure; xn = mol fraction of the nth substance listed; settings: 101.3 kPa, Liquid, Small sample (50 mg) DSC

CCCCn1cc[n+](C)c1.COS(=O)(=O)[O-] [1-butyl-3-methylimidazolium methyl sulfate] + C[N+](=O)[O-]
Settings	mass density, [1] [kg/m3]	molar heat capacity at constant pressure, [2] [J/K/mol]
293.15 K, x1 = 0.0522	1158.1	122.1
293.15 K, x1 = 0.1	1168.5	136.5
293.15 K, x1 = 0.1966	1182.1	166.4
293.15 K, x1 = 0.3059	1191.3	200.5
293.15 K, x1 = 0.4061	1196.9	231.4
293.15 K, x1 = 0.5025	1200.8	261.5
293.15 K, x1 = 0.5889	1203.5	288
293.15 K, x1 = 0.6844	1205.9	317.2
293.15 K, x1 = 0.7832	1207.8	347.4
293.15 K, x1 = 0.8654	1209.1	372.6
293.15 K, x1 = 0.9289	1210	392.1
298.15 K, x1 = 0.0522	1152.1	122.4
298.15 K, x1 = 0.1	1163	137
298.15 K, x1 = 0.1966	1177.3	167
298.15 K, x1 = 0.3059	1186.9	201.3
298.15 K, x1 = 0.4061	1192.8	232.5
298.15 K, x1 = 0.5025	1196.9	262.7
298.15 K, x1 = 0.5889	1199.8	289.4
298.15 K, x1 = 0.6844	1202.2	318.9
298.15 K, x1 = 0.7832	1204.3	349.2
298.15 K, x1 = 0.8654	1205.7	374.6
298.15 K, x1 = 0.9289	1206.7	394.3
303.15 K, x1 = 0.0522	1146.1	122.8
303.15 K, x1 = 0.1	1157.5	137.5
303.15 K, x1 = 0.1966	1172.4	167.7
303.15 K, x1 = 0.3059	1182.6	202.3
303.15 K, x1 = 0.4061	1188.7	233.6
303.15 K, x1 = 0.5025	1193	263.9
303.15 K, x1 = 0.5889	1196	290.9
303.15 K, x1 = 0.6844	1198.6	320.6
303.15 K, x1 = 0.7832	1200.8	351.1
303.15 K, x1 = 0.8654	1202.3	376.7
303.15 K, x1 = 0.9289	1203.3	396.5
308.15 K, x1 = 0.0522	1140.1	123.3
308.15 K, x1 = 0.1	1152	138.1
308.15 K, x1 = 0.1966	1167.6	168.4
308.15 K, x1 = 0.3059	1178.2	203.2
308.15 K, x1 = 0.4061	1184.7	234.8
308.15 K, x1 = 0.5025	1189.2	265.1
308.15 K, x1 = 0.5889	1192.3	292.4
308.15 K, x1 = 0.6844	1195	322.2
308.15 K, x1 = 0.7832	1197.4	352.9
308.15 K, x1 = 0.8654	1199	378.7
308.15 K, x1 = 0.9289	1200	398.7
313.15 K, x1 = 0.0522	1134.1	123.8
313.15 K, x1 = 0.1	1146.5	138.7
313.15 K, x1 = 0.1966	1162.8	169.1
313.15 K, x1 = 0.3059	1173.9	204.1
313.15 K, x1 = 0.4061	1180.6	235.9
313.15 K, x1 = 0.5025	1185.3	266.3
313.15 K, x1 = 0.5889	1188.6	293.8
313.15 K, x1 = 0.6844	1191.5	323.9
313.15 K, x1 = 0.7832	1193.9	354.7
313.15 K, x1 = 0.8654	1195.6	380.8
313.15 K, x1 = 0.9289	1196.6	400.8
318.15 K, x1 = 0.0522	1128.1	124.2
318.15 K, x1 = 0.1	1141	139.1
318.15 K, x1 = 0.1966	1158	169.7
318.15 K, x1 = 0.3059	1169.5	205
318.15 K, x1 = 0.4061	1176.6	237
318.15 K, x1 = 0.5025	1181.5	267.4
318.15 K, x1 = 0.5889	1184.9	295.3
318.15 K, x1 = 0.6844	1187.9	325.6
318.15 K, x1 = 0.7832	1190.4	356.5
318.15 K, x1 = 0.8654	1192.2	382.8
318.15 K, x1 = 0.9289	1193.3	403
